Here are results for ten compounds from ChEMBL document CHEMBL3045410, “Synthesis and in vitro antitumor activity of 1-(3-dimethylamino)propyl indolin-2-one derivatives” (Med Chem Res, 2013).

The subject of experiment [1] is HUVEC. The experiment can be described thus: Cytotoxicity against recombinant Homo sapiens (human) basic FGF-stimulated HUVECs assessed as growth inhibition by MTT assay. It is filed as functional, cell-based.
A further experiment has as its system IM-9. The experiment can be described thus: Cytotoxicity against Homo sapiens (human) IM9 cells assessed as growth inhibition by MTT assay. It is filed as functional, cell-based. (In general: Tetrazolium dyes change colour on reduction, which living cells bring about.)
In experiment [2] the test system is HL-60. Nature of the experiment: Cytotoxicity against Homo sapiens (human) HL60 cells assessed as growth inhibition by MTT assay. Format: functional, cell-based.
Experiment [3] relates to HUVEC. Nature of the experiment: Cytotoxicity against VEGF-stimulated HUVECs assessed as growth inhibition by MTT assay. Conditions: Homo sapiens. It is filed as functional, cell-based.
Experiment [4] concerns K562. Nature of the experiment: Cytotoxicity against Homo sapiens (human) K562 cells assessed as growth inhibition by MTT assay. It is filed as functional, cell-based.
Experiment [5] relates to A549. Nature of the experiment: Cytotoxicity against Homo sapiens (human) A549 cells assessed as growth inhibition by MTT assay. Format: functional, cell-based.
Experiment [6] concerns MDA-MB-231. Nature of the experiment: Cytotoxicity against Homo sapiens (human) MDA-MB-231 cells assessed as growth inhibition by MTT assay. Format: functional, cell-based.
The test system of experiment [7] is HUVEC. Nature of the experiment: Cytotoxicity against HUVECs assessed as growth inhibition by MTT assay. Format: cell-based. Conditions: Homo sapiens.
In experiment [8] the test system is MDA-MB-231. Nature of the experiment: Ratio of LK-B030 IC50 to compound IC50 for Homo sapiens (human) MDA-MB-231 cells. Format: functional.
Experiment [9] relates to HL-60. The experiment can be described thus: Ratio of sunitinib IC50 to compound IC50 for Homo sapiens (human) HL60 cells. Format: functional.
Experiment [10] has as its system K562. Nature of the experiment: Ratio of sunitinib IC50 to compound IC50 for Homo sapiens (human) K562 cells. Format: functional.
Experiment [11] has as its system A549. Nature of the experiment: Ratio of LK-B030 IC50 to compound IC50 for Homo sapiens (human) A549 cells. Format: functional.
In experiment [12] the test system is A549. The experiment can be described thus: Ratio of sunitinib IC50 to compound IC50 for Homo sapiens (human) A549 cells. Format: functional.
Experiment [13] concerns MDA-MB-231. Nature of the experiment: Ratio of sunitinib IC50 to compound IC50 for Homo sapiens (human) MDA-MB-231 cells. It is filed as functional.

SMILES strings stand for the structures.

As a reminder, the IC50 is the point on the concentration scale where inhibition reaches its midpoint. As for `Cc1[nH]c(/C=C2\C(=O)N(CCCN(C)C)c3ccc(F)cc32)c(C)c1C(=O)N1CCOCC1`, the half-maximal inhibitory concentration (IC50) in the experiment with HUVEC [1] worked out at 22 µM; with IM-9, 61.5 µM; in the experiment with HL-60 [2] it was 13.2 µM; in the experiment with HUVEC [3] it was 9.11 µM; in the experiment with K562 [4], 57 µM; in the experiment with A549 [5], 21.7 µM. The IC50 stood at 14.7 µM in the experiment on MDA-MB-231 [6] and 29.4 µM in the experiment with HUVEC [7].

Turning to `C/C(=C1/C(=O)N(CCCN(C)C)c2ccc(F)cc21)c1ccc[nH]1`, the IC50 was found to be 8.83 µM in the experiment with HUVEC [1]; 6.68 µM in the experiment on IM-9; 7.99 µM in the experiment with HL-60 [2]; 9.71 µM in the experiment with HUVEC [3]; 6.41 µM in the experiment on K562 [4]; 8.27 µM in the experiment with A549 [5]. Further, the IC50 was 5.92 µM in the experiment on MDA-MB-231 [6] and 13.9 µM in the experiment on HUVEC [7].

On to `CCN(CC)CCNC(=O)c1c(C)[nH]c(/C=C2\C(=O)Nc3ccc(F)cc32)c1C` [SUNITINIB], for which the IC50 with HUVEC [7] came out at 3.9 µM.

As for `CCN(CC)CCNC(=O)c1c(C)[nH]c(/C=C2\C(=O)N(CCCN(C)C)c3ccc(Cl)cc32)c1C`, the IC50 in the experiment on HUVEC [7] amounted to 5.57 µM.

On to `CN(C)CCCN1C(=O)/C(=C(/c2ccccc2)c2ccc[nH]2)c2cc(F)ccc21`, for which the IC50 came out at 8.83 µM with HUVEC [1]; 5.64 µM with IM-9; 7.16 µM in the experiment on HL-60 [2]; 9.52 µM in the experiment on HUVEC [3]; 6.43 µM in the experiment with K562 [4]; 11.4 µM with A549 [5]. Besides, the IC50 in the experiment on MDA-MB-231 [6] turned out to be 6.92 µM; in the experiment with HUVEC [7], 42.8 µM.

Take `CCOC(=O)c1c(C)[nH]c(/C=C2\C(=O)N(CCCN(C)C)c3ccc(Cl)cc32)c1C.Cl`: the “Ratio IC50” value came to 1.6 in the experiment with MDA-MB-231 [8]; 1.8 in the experiment with HL-60 [9]; 1.8 in the experiment with K562 [10]; 1.6 in the experiment with A549 [11]; 1.8 in the experiment on A549 [12]; 1.8 in the experiment on MDA-MB-231 [13]. Also, the IC50 turned out to be 10.2 µM with HUVEC [1]; 2.95 µM in the experiment with IM-9; 1.17 µM in the experiment with HL-60 [2]; 9.66 µM in the experiment on HUVEC [3]; 1.36 µM with K562 [4]; 1.1 µM with A549 [5]. In addition, the IC50 with MDA-MB-231 [6] was found to be 1.47 µM; with HUVEC [7], 22 µM.

As to `Cc1[nH]c(/C=C2\C(=O)N(CCCN(C)C)c3ccc(Cl)cc32)c(C)c1C(=O)N1CCOCC1`, the IC50 came out at 10.7 µM with HUVEC [1]; 7.65 µM in the experiment with IM-9; 4.64 µM in the experiment on HL-60 [2]; 4.21 µM with HUVEC [3]; 5.46 µM in the experiment with K562 [4]; 8.6 µM in the experiment on A549 [5]. In addition, the IC50 in the experiment on MDA-MB-231 [6] is 9.69 µM; in the experiment with HUVEC [7], 14.2 µM.

As for `CC/C(=C1/C(=O)N(CCCN(C)C)c2ccc(F)cc21)c1ccc[nH]1`, the IC50 in the experiment with HUVEC [1] is 9.75 µM; in the experiment on IM-9, 11 µM; in the experiment with HL-60 [2], 10.3 µM; in the experiment with HUVEC [3] it was 9.57 µM; in the experiment on K562 [4] it was 8.82 µM; in the experiment on A549 [5], 16.9 µM. For the same compound, the IC50 stood at 10.6 µM with MDA-MB-231 [6] and 22.2 µM in the experiment on HUVEC [7].

With `CN(C)CCCN1C(=O)C(=C(c2ccccc2)c2ccccc2)c2cc(F)ccc21`, the IC50 in the experiment with HUVEC [1] amounted to 10.9 µM; with IM-9 it was 9.38 µM; in the experiment on HL-60 [2] it was 10.1 µM; in the experiment on HUVEC [3], 8.42 µM; in the experiment on K562 [4] it was 6.85 µM; in the experiment with A549 [5] it was 13.4 µM. Moreover, the IC50 was found to be 6.61 µM in the experiment with MDA-MB-231 [6] and 32.8 µM in the experiment with HUVEC [7].

Consider `CCOC(=O)c1c(C)[nH]c(/C=C2\C(=O)N(CCCN(C)C)c3ccc(F)cc32)c1C`, for which the half-inhibitory concentration (IC50) with HUVEC [1] was 1.81 µM; in the experiment with IM-9, 3.21 µM; with HL-60 [2], 1.36 µM; in the experiment on HUVEC [3], 10.1 µM; in the experiment on K562 [4], 1.54 µM; in the experiment on A549 [5], 1.55 µM. Also, the IC50 with MDA-MB-231 [6] came out at 3.86 µM; in the experiment on HUVEC [7] it was 8.56 µM.
